For series [1], the system named is N-Myc-Max binding to DNA E-box. The series is described as follows: Biolayer interferometry (BLI), N-Myc-Max binding to biotinylated E-box DNA. It is filed as biochemical. Particulars: BLI, 0, 50, 100, 200 µM. An excerpt:
To confirm that 70619 could disrupt the binding of N-Myc-Max DBD to DNA, we performed a bio-layer interferometry (BLI) assay where we immobilized biotinylated E-box sequence on streptavidin sensors, and we evaluated recombinant N-Myc-Max binding to the DNA in the presence of increasing concentrations of VPC-70619. […] We observed a similar number of interactions when comparing the ratio of signal per nuclei in the presence or absence of the compound.
The bHLHLZ domain of N-Myc (amino acids 309–394) and Max (amino acids 12–93) protein sequences were cloned into pETDuet with an N-terminal 6×His. pETDuet-His-NMyc-Max was transformed and expressed in E. coli BL21 and induced with 0.5 mM isopropyl-β-D-thiogalactopyranoside (IPTG) at 16 °C overnight. The cultures were lysed by sonication and combined for purification by immobilized metal ion chromatography (IMAC) with nickel-nitrilotriacetic acid (Ni-NTA) resin. The bound proteins were eluted from the column with 20 mM Tris, pH = 8, 500 mM NaCl, 5% glycerol, 300 mM imidazole, 5 mM βMe, and 0.1 mM PMSF. Size exclusion chromatography with Superdex 75 was used to increase the purity of the N-Myc-Max protein sample. The purified protein complex was used in subsequent BLI and MST experiments.
Biotinylated-duplex DNA (Forward: 5′ Biotin-[…], Reverse: […]) was bound to the super-streptavidin (SSA) ForteBio Sensor in the assay buffer [20 mM Tris pH = 8, 150 mM NaCl, 5% glycerol, and 0.2 mM TCEP]. The protein solution was mixed with the serially diluted compound (70619) to a final concentration of 0.1 mg/mL of protein and 200 μM, 100 μM, and 50 μM for the compound. Sample containing N-Myc-Max protein alone was used as a control.
(In general: Biolayer interferometry detects binding as a change in optical thickness at a sensor tip.)

Another series concerns HO15.19 cells. The series is described as follows: Cell viability counter-screen (CellTiter-Glo), Myc-negative HO15.19. It is filed as cell-based. The essentials: (§1)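 IMR32 cells (10,000/well) and HO15.19 cells (2000/well), both in EMEM with 10% FBS, were seeded 24 h before 72 h exposure to serial compound dilutions starting at 25 μM. Viability was read by CellTiter-Glo luminescence to give IC50. Single-point testing used 10 µM.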

A short description of series [2]: Pharmacokinetics after IP and PO dosing. It is filed as in vivo, male Balb/c mice. The following applies: 10 mg/kg; for half-life / Cmax: male, Balb/c, mouse, plasma; for Cmax: 70551 in 75:25 PG/PEG 400, 70619 in 20:80 Kolliphor EL. How it is done: In order to characterize VPC-70619 as a drug candidate against N-myc, its pharmacokinetic (PK) characteristics were evaluated in Balb/c mice following intraperitoneal (IP) and peroral (PO) administrations. As presented in Figure 5, we determined the PK properties of VPC-70619 and compared it to the parental molecule, VPC-70551. […] The clearance of 70551 for PO delivery was extremely slow, and we could not determine the T1/2 in the experimental conditions used for this assay. […] Therefore, VPC-70619 was deemed to have appropriate efficacy in vivo, and a better pharmacokinetic profile due to higher bioavailability for both oral and intraperitoneal administration.
Bienta Enamine Biology Services (Kyiv, Ukraine) conducted PK studies according to the Enamine PK study protocols and Institutional Animal Care and Use Guidelines. The PK studies were reviewed and approved by the Bienta Animal Care and Use Committee (BACUC) under the project identification codes PK-VPC-112618 (approved 17 December 2018) and PK-VPC-101119 (approved 21 October 2019), for VPC-70551 and […], respectively. Evaluation of 70619 and 70551 was conducted in male Balb/c mice through intraperitoneal (IP) and peroral (PO) administration. Measurements were taken at six time points: 5, 15, 60, 120, 240, and 360 min for IP; 15, 30, 60, 120, 240, and 480 min for PO. Four mice were included in each treatment group for each time point; one mouse each for IP and PO was included as a control. Initial target administration for both IP and PO was 10 mg/kg dose level, 2 mg/mL dose concentration, and 5 mL/kg dose volume. Concentration of the compounds was evaluated in the plasma samples using an LC-MS/MS system.

A further series concerns IMR32 cells. Description: Cell viability (CellTiter-Glo), IMR32. It is filed as cell-based. Particulars: Homo sapiens, IMR-32. The essentials:
as §1
(In general: ATP-based viability assays read luminescence as a measure of living cells.)

The nature of series [3]: Microsomal stability assay. It is filed as in vitro ADME, Mouse. How it is done:
A microsomal stability assay was performed using the Corning Gentest NADPH Regenerating System (Corning, #451220/41200) (Corning, NY, USA). Mouse liver microsomes (MLM) (Xenotech, M1000) (Kansas City, KS, USA) and compounds were diluted to a final concentration of 0.15 mg/mL and 1 μM respectively. These were prepared into a 500 μL solution with 100 mM potassium phosphate buffer (pH = 7.4). Imipramine was used as a control. NADPH solutions A and B were mixed in a 5:1 ratio, and 24 μL of the NADPH was added to each of the MLM/compound samples at 30 s intervals. At time points 10, 20, and 45 min, 100 μL of reaction was added to the stopping solution. Samples were centrifuged at 18,000× g and incubated at 4 °C for 10 min. Samples were then loaded onto a LC-MS 96-well plate for analysis.

This note sets out measurements from paper PMC8910697, “Development of VPC-70619, a Small-Molecule N-Myc Inhibitor as a Potential Therapy for Neuroendocrine Prostate Cancer” (International Journal of Molecular Sciences, 2022).

“Also recorded” adds a separate entry of the source. Read-outs that look alike come from different tables or passages of the source.

The term inhibition denotes the change of the read-out against control, counted positive when it falls. Read a high inhibition as strong suppression. The Cmax is the peak of the concentration-time curve. Regarding `N#Cc1ccc(NNC(=O)c2ccc(C#N)c(Cl)c2)c(C(F)(F)F)c1` [compound 70619], the “disruption of DNA binding to (N-)Myc-Max (in words)” value is listed as “disrupt DNA binding at 100 µM” in series [1] and “effective at blocking N-Myc-Max binding to DNA in a dose-dependent manner” in series [1] (listed as VPC-70619). For the same compound, the “% Inhibition in HO15.19 (10 µM)” value in the series with HO15.19 cells (10 µM, Myc-negative specificity control) was determined as 14.1%. Also, the inhibition at 10 µM amounted to 14% with HO15.19 cells (Rattus norvegicus, HO15.19, 10 µM, Myc-negative specificity control) and 99.4% in the series with IMR32 cells. Besides, the “cytotoxicity in Myc-negative HO15.19 (in words)” value with HO15.19 cells (counter-screen) is given as “did not report any strong inhibitory effects; also recorded: minimal cytotoxicity”. Moreover, the half-life in series [2] (ip, read-out: plasma half-life (T1/2) IP) was 5.5 h; in series [2] (po, read-out: plasma half-life (T1/2) PO), 7.12 h. Further, the Cmax worked out at 29500 ng/mL in series [2] (IP, read-out: Cmax IP) and 24000 ng/mL in series [2] (PO, read-out: Cmax PO). Moreover, in series [2] (single dose IP or PO), the “adverse effects / signs of toxicity in PK animals” value was “No signs of toxicity”. In series [3] (half-life 2310 min vs 140 min), the “increase in microsomal stability compared to VPC-70551” value is given as 15 fold. Moreover, the half-life at 1 μM in series [3] (mouse, mouse liver microsomes, pH 7.4, mouse liver microsomes, 1 µM compound, read-out: microsomal half-life (T1/2)) is 38.5 h.
